Assay results from US9149038B2, “4-amino-6-(heterocyclic)picolinates and 6-amino-2-(heterocyclic)pyrimidine-4-carboxylates and their use as herbicides” (Dow AgroSciences LLC, priority 2013, dated 2015).
Like-named read-outs stand apart in the source and are kept apart here.

What was measured:
[1] = system: Key Broadleaf Weed and Crop Species; test: Post-Emergent Test II: postemergent herbicidal activity, visual rating after 14 d (Table 7); format: in vivo; conditions: post-emergence, 336 h; for pest or weed control at 35 g/ha: 35 g ai/ha; for pest or weed control at 70 g/ha: 70 g ai/ha; for pest or weed control at 140 g/ha: 140 g ai/ha
How it was run: (§1)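 Plants were raised in a greenhouse for 7-21 d and treated once at the first or second true leaf stage. Compounds, dissolved in 97:3 acetone:DMSO then diluted into an aqueous acetone/isopropanol/crop oil/Triton X-155 carrier, were applied by overhead track sprayer at 187 L/ha. After 14 d with subirrigation, injury was scored visually from 0 (none) to 100 (complete kill).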

[2] = system: Key Grass and Sedge Weeds as well as Grass Crops; test: Post-Emergent Test II: postemergent herbicidal activity, visual rating after 14 d (Table 8); format: in vivo; conditions: post-emergence, 336 h; for pest or weed control at 35 g/ha: 35 g ai/ha; for pest or weed control at 70 g/ha: 70 g ai/ha; for pest or weed control at 140 g/ha: 140 g ai/ha
How it was run: as §1

[3] = ABUTH: velvetleaf (Abutilon theophrasti), read-out: Visual Growth Reduction (%) 14 Days After Application ABUTH
[4] = AMARE: redroot pigweed (Amaranthus retroflexus), read-out: Visual Growth Reduction (%) 14 Days After Application AMARE
[5] = BRSNN: oilseed rape, canola (Brassica napus), read-out: Visual Growth Reduction (%) 14 Days After Application BRSNN
[6] = CHEAL: lambsquarters (Chenopodium album), read-out: Visual Growth Reduction (%) 14 Days After Application CHEAL
[7] = EPHHL: wild poinsettia (Euphorbia heterophylla), read-out: Visual Growth Reduction (%) 14 Days After Application EPHHL
[8] = HELAN: sunflower (Helianthus annuus), read-out: Visual Growth Reduction (%) 14 Days After Application HELAN
[9] = barnyardgrass (Echinochloa crus-galli), read-out: Visual Growth Reduction (%) 14 Days After Application, ECHCG
[10] = giant foxtail (Setaria faberi), read-out: Visual Growth Reduction (%) 14 Days After Application, SETFA
[11] = maize, corn (Zea mays), read-out: Visual Growth Reduction (%) 14 Days After Application, ZEAMX
[12] = rice (Oryza sativa), read-out: Visual Growth Reduction (%) 14 Days After Application, ORYSA
[13] = wheat, spring (Triticum aestivum), read-out: Visual Growth Reduction (%) 14 Days After Application, TRZAS
[14] = yellow nutsedge (Cyperus esculentus), read-out: Visual Growth Reduction (%) 14 Days After Application, CYPES

COC(=O)c1nc(-c2ccc(Cl)c3c2OC(F)(F)O3)cc(N)c1Cl [Compound 86]
pest or weed control at 35 g/ha [1, 3]: 75 to 84% | pest or weed control at 70 g/ha [1, 3]: 85 to 94% | pest or weed control at 140 g/ha [1, 3]: 85 to 94% | pest or weed control at 35 g/ha [1, 4]: 95 to 100% | pest or weed control at 70 g/ha [1, 4]: 95 to 100% | pest or weed control at 140 g/ha [1, 4]: 95 to 100% | pest or weed control at 35 g/ha [1, 5]: 75 to 84% | pest or weed control at 70 g/ha [1, 5]: 75 to 84% | pest or weed control at 140 g/ha [1, 5]: 85 to 94% | pest or weed control at 35 g/ha [1, 6]: 95 to 100% | pest or weed control at 70 g/ha [1, 6]: 95 to 100% | pest or weed control at 140 g/ha [1, 6]: 95 to 100% | pest or weed control at 35 g/ha [1, 7]: 0 to 29% | pest or weed control at 70 g/ha [1, 7]: 0 to 29% | pest or weed control at 140 g/ha [1, 7]: 0 to 29% | pest or weed control at 35 g/ha [1, 8]: 75 to 84% | pest or weed control at 70 g/ha [1, 8]: 85 to 94% | pest or weed control at 140 g/ha [1, 8]: 85 to 94% | pest or weed control at 35 g/ha [2, 9]: 0 to 29% | pest or weed control at 70 g/ha [2, 9]: 0 to 29% | pest or weed control at 140 g/ha [2, 9]: 0 to 29% | pest or weed control at 35 g/ha [2, 10]: 0 to 29% | pest or weed control at 70 g/ha [2, 10]: 0 to 29% | pest or weed control at 140 g/ha [2, 10]: 0 to 29% | pest or weed control at 35 g/ha [2, 11]: 85 to 94% | pest or weed control at 70 g/ha [2, 11]: 85 to 94% | pest or weed control at 140 g/ha [2, 11]: 95 to 100% | pest or weed control at 35 g/ha [2, 12]: 0 to 29% | pest or weed control at 70 g/ha [2, 12]: 0 to 29% | pest or weed control at 140 g/ha [2, 12]: 0 to 29% | pest or weed control at 35 g/ha [2, 13]: 0 to 29% | pest or weed control at 70 g/ha [2, 13]: 0 to 29% | pest or weed control at 140 g/ha [2, 13]: 0 to 29% | pest or weed control at 35 g/ha [2, 14]: 60 to 74% | pest or weed control at 70 g/ha [2, 14]: 60 to 74% | pest or weed control at 140 g/ha [2, 14]: 60 to 74%
